Measurements: patent US11633395B2, “Substituted pyrazolo[1,5-a]pyrazines as negative allosteric modulators of group II metabotropic glutamate receptor” (Sumitomo Pharma Co., Ltd., priority 2017, dated 2023)

Legend:
human mGlu2 receptor = human mGlu2 receptor (Homo sapiens (Human), UniProt Q14416); test: Assessment of mGlu2 receptor negative allosteric modulator activity in human mGlu2 receptor stable expressing cells (aequorin luminescence, EC80 glutamate); assay type: cell-based; conditions: human mGlu2 receptor stable expressing HEK cells; compound added 120 seconds before EC80 glutamate; luminescence (RLU); read-out: mGluR2 NAM IC50 (nM) or inhibition rate (%)
Chain of human mGlu2 receptor (Q14416 19-872): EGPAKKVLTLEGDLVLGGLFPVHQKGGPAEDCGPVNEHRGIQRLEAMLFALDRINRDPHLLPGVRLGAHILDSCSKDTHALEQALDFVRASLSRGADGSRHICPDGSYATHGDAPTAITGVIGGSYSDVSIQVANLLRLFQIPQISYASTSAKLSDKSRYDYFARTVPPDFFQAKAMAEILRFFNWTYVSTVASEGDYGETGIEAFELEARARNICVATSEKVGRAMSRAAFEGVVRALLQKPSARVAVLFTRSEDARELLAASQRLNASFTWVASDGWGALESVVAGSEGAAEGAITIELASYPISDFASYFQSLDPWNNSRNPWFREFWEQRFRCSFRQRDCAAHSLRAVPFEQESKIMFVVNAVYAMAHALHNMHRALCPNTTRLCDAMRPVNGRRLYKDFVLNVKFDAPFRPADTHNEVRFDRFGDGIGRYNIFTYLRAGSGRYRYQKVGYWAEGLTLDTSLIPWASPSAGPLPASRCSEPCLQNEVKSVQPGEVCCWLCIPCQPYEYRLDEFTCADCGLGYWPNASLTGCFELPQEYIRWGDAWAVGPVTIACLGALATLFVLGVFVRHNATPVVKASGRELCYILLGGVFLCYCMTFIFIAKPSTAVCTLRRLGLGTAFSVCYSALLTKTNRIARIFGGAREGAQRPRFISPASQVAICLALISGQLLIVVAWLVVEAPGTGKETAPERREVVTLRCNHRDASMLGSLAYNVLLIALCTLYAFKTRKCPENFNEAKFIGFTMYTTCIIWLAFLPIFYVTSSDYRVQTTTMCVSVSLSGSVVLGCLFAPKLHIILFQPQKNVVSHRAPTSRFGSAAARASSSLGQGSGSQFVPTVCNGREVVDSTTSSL
Description: Test 1: Assessment with Human mGlu2 Receptor Stable Expressing Cells
(1) Human mGlu2 Receptor Stable Expressing Cells
Human mGlu2 receptor stable expressing cells were prepared, and used for incubation. Specifically, human mGlu2 receptor gene was inserted into pcDNA4/TO (K1020-01, Life technologies, Carlsbad, Calif., USA), and introduced into TR-expressed human kidney-derived HEK cells (cat #CCL-82.2, ATCC, USA), followed by screening with Geneticin (cat #10131-027, Life technologies, Carlsbad, Calif., USA), to obtain human mGlu2 receptor stable expressing cells.
High glucose-DMEM media (cat #11995-065, Life technologies, Carlsbad, Calif., USA) containing 10% Dialysed-FBS (cat #26400-044, Life technologies, Carlsbad, Calif., USA), 50 μg/mL Blasticidin S (cat #ANT-BL-1, Life technologies, Carlsbad, Calif., USA), and 2 mg/mL G418 (cat #16513-84, nacalai tesque, Kyoto, Japan) were used for incubation on flasks for cell culture (cat #3133-150, AGC Thechno Glass, Shizuoka, Japan). During the incubation, cells were recovered by the treatment with TrypLE Express (cat #12604-013, Life technologies, Carlsbad, Calif., USA), followed by subculture, every three to four days.
Cells were recovered by an about 80% confluency in the treatment with TrypLE Express three to four days after the subculture, transiently transfected with Ga16, apoaequorin, in media of Hanks (cat #14065-056, Life technologies, Carlsbad, Calif., USA)/20 mmol/L HEPES (cat #15630-080, Life technologies, Carlsbad, Calif., USA) Buffer (pH 7.4) containing 0.1% BSA (cat #12604-013, Life technologies, Carlsbad, Calif., USA) and 0.1 μg/mL Tetracycline (cat #33031-64, nacalai tesque, Kyoto, Japan), and then seeded on a 384-well plate (cat #781090, Greiner bio-one, Frickenhausen, Germany) in 1,500 cells/30 μL/well.
Coelentetrazine h (cat #S2011, Promega, Madison, Wis., USA) was added to the plate (10 μl/well) so as to be a final concentration of 1 μmol/L on the day after the seeding, and let stand for 4 hours or more at room temperature after centrifugation.
(2) Preparation of Test Compounds
A test compound was dissolved in DMSO so as to be a concentration 1000 times higher than the assessment concentration. This DMSO solution was diluted with a medium (Hanks, 20 mmol/L HEPES, 0.1% BSA) to a concentration 6 times higher than the assessment concentration. Glutamate was diluted with Hanks/20 mmol/L HEPES/0.1% BSA medium to a concentration 6 times higher than EC80 concentration.
(3) Assessment of mGlu2 Receptor Negative Allosteric Modulator Activity
Human mGlu2 receptor stable expressing cells were prepared and incubated. Luminescence signals by mGlu2 receptor stimulation were detected with FDSS7000 (Hamamatsu Photonics). The compound solution prepared above was added to a plate where cells and luminescent substrates were added (10 μl/well). After 120 seconds of the addition, EC80 Glutamate-containing solution was added thereto (10 μl/well), and luminescence signals were measured for 300 seconds after the addition (center wavelength: 465 nm) for calculation of RLU (Integration). mGlu2 receptor negative allosteric modulator activity of a compound was calculated by (100-100×(RLU of each compound and concentration)/(RLU of DMSO group)).
The present compound was assessed with the above biological test, and the compounds with mGlu2 receptor negative allosteric modulator activity were found out. mGlu2 receptor negative allosteric modulator activity (IC50 value (nmol/L)) for each compound is shown in the following table.

CYP3A4 = CYP3A4 (Homo sapiens (Human), UniProt P08684); test: Assessment of MBI and enzyme inactivation clearance against CYP3A4 (human liver microsomes, midazolam or testosterone as substrate); assay type: in vitro ADME; conditions: for microsomal CLint: probe midazolam or testosterone, CYP3A4, human liver microsomes, CLint = kinact/KI x CYP contents; for CYP3A4 MBI: shift in IC50 values due to preincubation with NADPH, human liver microsomes, MBI potential when 2-fold or more, N.D. = Not Detected
Chain of CYP3A4 (P08684 whole entry): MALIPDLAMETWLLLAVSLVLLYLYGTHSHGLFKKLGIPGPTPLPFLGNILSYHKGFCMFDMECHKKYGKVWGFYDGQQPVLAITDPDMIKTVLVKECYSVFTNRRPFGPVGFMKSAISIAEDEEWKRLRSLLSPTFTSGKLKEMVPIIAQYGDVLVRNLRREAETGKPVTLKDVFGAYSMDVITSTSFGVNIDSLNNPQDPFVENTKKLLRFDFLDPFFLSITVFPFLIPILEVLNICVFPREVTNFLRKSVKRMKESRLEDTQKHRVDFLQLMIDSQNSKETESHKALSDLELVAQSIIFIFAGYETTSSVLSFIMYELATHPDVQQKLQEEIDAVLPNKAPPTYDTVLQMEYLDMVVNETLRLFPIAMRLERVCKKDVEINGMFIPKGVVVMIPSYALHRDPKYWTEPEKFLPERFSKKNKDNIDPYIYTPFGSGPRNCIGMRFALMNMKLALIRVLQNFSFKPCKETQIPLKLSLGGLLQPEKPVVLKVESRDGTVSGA
Source text: Test 4: Assessment of MBT and Enzyme Inactivation Clearance Against CYP3A4
Cytochrome P450 (hereinafter called CYP) is the most important enzyme group associated with drug metabolism, and most of pharmacokinetic interactions are based on the inhibition of the CYP activities. CYP includes multiple molecular species. In particular, CYP3A4 is most involved in drug metabolism in oxidation reaction with CYP, and accounts for a major portion of CYPs existing in the liver.
CYP inhibition is generally divided into two types consisting of “reversible inhibition” and “irreversible inhibition (mechanism-based inhibition: MBI)”. In particular, CYP inhibition based on the MBI is known to have a possibility to cause severe side effects such as hepatotoxicity as well as drug-drug interactions (Curr Opin Drug Discov Devel. 2010 January, 13(1), 66-77, Therapeutics and Clinical Risk Management, 2005, 1(1), 3-13).
MBI and enzyme inactivation clearance against CYP3A4 were evaluated for example compounds.
Inhibition effects and inhibition types of test compounds to CYP3A4 were evaluated using human liver microsomes as an enzyme source and midazolam or testosterone as a substrate of CYP3A4. After metabolic reaction for 30 minutes at 37° C., metabolites of CYP3A4 substrate in the presence or absence of a test compound (at 4 concentrations) were measured by LC-MS/MS, and the inhibition rates were calculated from the ratios of peak area. IC50 values were calculated from plots of test compound concentrations. It was known that when a test compound has MBI potential, IC50 value is lowered by starting metabolic reactions after preincubation in the presence of NADPH (cofactor). Therefore, it was determined that there was MBI potential when the shift in IC50 values due to preincubation was 2-fold or more (Xenobiotica, 2009, 39(2), 99-112).
When MBI potential was determined, kinact (maximum inactivation rate constant) and KI (inactivator concentration yielding a measured inactivation rate at half of kinact) were calculated by the non-linear least-squares method. Enzyme inactivation clearance was calculated according to the method described in Drug Metabolism and Disposition, 2011, 39(7), 1247-1254 (CLint=kinact/KI([…])×CYP contents (pmol/mg protein)).

| SMILES | IC50 (human mGlu2 receptor) | microsomal CLint (CYP3A4) | CYP3A4 MBI (CYP3A4) |
| --- | --- | --- | --- |
| CCCc1cnc2ccc(-c3cnn4c3C(=O)N(c3ccc(C(F)(F)F)cc3)C[C@@H]4C)cn12 [Example 16, (7S)-7-methyl-3-(3-propylimidazo[1,2-a]pyridin-6-yl)-5-[4-(trifluoromethyl)phenyl]-6,7-dihydropyrazolo[1,5-a]pyrazin-4(5H)-one] | 13 nM | – | – |
| C[C@H]1CN(c2ccc(C(F)(F)F)cc2)C(=O)c2c(-c3ccc4ncc(N)n4c3)cnn21 [Example 11, (7S)-3-(3-aminoimidazo[1,2-a]pyridin-6-yl)-7-methyl-5-[4-(trifluoromethyl)phenyl]-6,7-dihydropyrazolo[1,5-a]pyrazin-4(5H)-one] | 78 nM | – | – |
| C[C@H]1CN(c2ccc(F)c(Cl)c2)C(=O)c2c(-c3ccc4nccn4c3)cnn21 [Example 3, (7S)-5-(3-chloro-4-fluorophenyl)-3-(imidazo[1,2-a]pyridin-6-yl)-7-methyl-6,7-dihydropyrazolo[1,5-a]pyrazin-4 (5H)-one] | 23 nM | – | – |
| C[C@H]1CN(c2ccc(C(F)(F)F)cn2)C(=O)c2c(-c3ccc4nccn4c3)cnn21 [Example 12, (7S)-3-(imidazo[1,2-a]pyridin-6-yl)-7-methyl-5-[5-(trifluoromethyl)pyridin-2-yl]-6,7-dihydropyrazolo[1,5-a]pyrazin-4(5H)-one] | – | 0.159 µL/min/mg | 2.2 |
| Cc1cc(N2C[C@H](C)n3ncc(-c4ccc5nccn5c4)c3C2=O)ccc1F [Example 17, (7S)-5-(4-fluoro-3-methylphenyl)-3-(imidazo[1,2-a]pyridin-6-yl)-7-methyl-6,7-dihydropyrazolo[1,5-a]pyrazin-4(5H)-one] | 17 nM | 1.94 µL/min/mg | 3.2 |
| Cc1cc(N2C[C@H](C)n3ncc(-c4ccc5ncc(F)n5c4)c3C2=O)ccc1F [Example 18, (7S)-3-(3-fluoroimidazo[1,2-a]pyridin-6-yl)-5-(4-fluoro-3-methylphenyl)-7-methyl-6,7-dihydropyrazolo[1,5-a]pyrazin-4(5H)-one] | 6.9 nM | – | – |
| C[C@H]1CN(c2ccc(C(F)(F)F)cc2)C(=O)c2c(-c3ccc4nc(N)cn4c3)cnn21 [Example 10, (7S)-3-(2-aminoimidazo[1,2-a]pyridin-6-yl)-7-methyl-5-[4-(trifluoromethyl)phenyl]-6,7-dihydropyrazolo[1,5-a]pyrazin-4(5H)-one] | 302 nM | – | – |
| C[C@H]1CN(c2ccc(C(F)(F)F)cc2)C(=O)c2c(-c3ccc4nccn4c3)cnn21 [Example 1, (7S)-3-(imidazo[1,2-a]pyridin-6-yl)-7-methyl-5-[4-(trifluoromethyl)phenyl]-6,7-dihydropyrazolo[1,5-a]pyrazin-4(5H)-one] | 18 nM | – | – |
| C[C@H]1CN(c2ccc(C(F)F)cc2)C(=O)c2c(-c3ccc4nccn4c3)cnn21 [Example 4, (7S)-5-[4-(difluoromethyl)phenyl]-3-(imidazo[1,2-a]pyridin-6-yl)-7-methyl-6,7-dihydropyrazolo[1,5-a]pyrazin-4(5H)-one] | 33 nM | – | – |
| C[C@H]1CN(c2ccc(C(F)(F)F)cc2)C(=O)c2c(-c3cn4ccnc4cn3)cnn21 [Example 2, (7S)-3-(imidazo[1,2-a]pyrazin-6-yl)-7-methyl-5-[4-(trifluoromethyl)phenyl]-6,7-dihydropyrazolo[1,5-a]pyrazin-4(5H)-one] | 11 nM | – | – |
| C[C@H]1CN(c2ccc(OC(F)F)cc2)C(=O)c2c(-c3ccc4nccn4c3)cnn21 [Example 9, (7S)-5-[4-(difluoromethoxy)phenyl]-3-(imidazo[1,2-a]pyridin-6-yl)-7-methyl-6,7-dihydropyrazolo[1,5-a]pyrazin-4(5H)-one] | 61 nM | – | – |
| C[C@H]1CN(c2ccc(C(F)(F)F)cc2)C(=O)c2c(-c3ccc4ncc(F)n4c3)cnn21 [Example 13, (7S)-3-(3-fluoroimidazo[1,2-a]pyridin-6-yl)-7-methyl-5-[4-(trifluoromethyl)phenyl]-6,7-dihydropyrazolo[1,5-a]pyrazin-4(5H)-one] | 7.9 nM | – | – |
| C[C@H]1CN(c2ccc(Cl)s2)C(=O)c2c(-c3ccc4nccn4c3)cnn21 [Example 7, (7S)-5-(5-chlorothiophen-2-yl)-3-(imidazo[1,2-a]pyridin-6-yl)-7-methyl-6,7-dihydropyrazolo[1,5-a]pyrazin-4(5H)-one] | 11 nM | 2.15 µL/min/mg | 4.5 |
| C[C@H]1CN(c2ccc3c(c2)OC(F)(F)O3)C(=O)c2c(-c3ccc4nccn4c3)cnn21 [Example 8, (7S)-5-(2,2-difluoro-1,3-benzodioxol-5-yl)-3-(imidazo[1,2-a]pyridin-6-yl)-7-methyl-6,7-dihydropyrazolo[1,5-a]pyrazin-4(5H)-one] | – | 0.601 µL/min/mg | 2.2 |
